The results in this text go back to PubChem BioAssay AID248 (DTP/NCI, 2004).

For this assay, the system named is L1210 leukemia ip in BDF1 mice, survival T/C. The experiment in a line: NCI In Vivo Anticancer Drug Screen. Data for tumor model L1210 Leukemia (intraperitoneal) in B6D2F1 (BDF1) mice. Particulars: endpoint: mean survival time, higher = longer survival. The procedure, abridged: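 Ratio derived from survival: compound-dosed mice over vehicle-dosed mice, all bearing a transplantable tumor.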

Where [1] appears, read: dose: 100.0 mg/kg/injection, schedule: Q04DX003 (ip), vehicle: saline.
[2] abbreviates: dose: 200.0 mg/kg/injection, schedule: Q04DX003 (ip), vehicle: saline.
The mark [3] stands for this setting: dose: 400.0 mg/kg/injection, schedule: Q04DX003 (ip), vehicle: saline.
Setting [4] is: dose: 100.0 mg/kg/injection, schedule: Q01DX001 (ip), vehicle: carboxymethylcellulose (CMC).
The mark [5] stands for this setting: dose: 200.0 mg/kg/injection, schedule: Q01DX001 (ip), vehicle: carboxymethylcellulose (CMC).
The mark [6] stands for this setting: dose: 400.0 mg/kg/injection, schedule: Q01DX001 (ip), vehicle: carboxymethylcellulose (CMC).
Where [7] appears, read: dose: 100.0 mg/kg/injection, schedule: Q01DX001 (ip), vehicle: saline.
Where [8] appears, read: dose: 200.0 mg/kg/injection, schedule: Q01DX001 (ip), vehicle: saline.
Where [9] appears, read: dose: 400.0 mg/kg/injection, schedule: Q01DX001 (ip), vehicle: saline.
The mark [10] stands for this setting: dose: 100.0 mg/kg/injection, schedule: Q01DX009 (ip), vehicle: saline.
Where [11] appears, read: dose: 200.0 mg/kg/injection, schedule: Q01DX009 (ip), vehicle: saline.
Where [12] appears, read: dose: 400.0 mg/kg/injection, schedule: Q01DX009 (ip), vehicle: saline.

Inconclusive results and toxic doses are left out.

With `CS(C)(=O)=C/C(=C\C(=O)c1ccccc1)c1ccccc1`, the T/C is 100 % of control (dose: 25.0 mg/kg/injection, schedule: Q04DX003 (ip), vehicle: saline); 103 % of control (dose: 50.0 mg/kg/injection, schedule: Q04DX003 (ip), vehicle: saline); 97 % of control under setting [1].
In the case of `Nc1cccc(Cl)c1`, the T/C runs as follows: (dose: 25.0 mg/kg/injection, schedule: Q01DX009 (ip), vehicle: saline with Tween-80) 92 % of control; (dose: 50.0 mg/kg/injection, schedule: Q01DX009 (ip), vehicle: saline with Tween-80) 92 % of control; (dose: 100.0 mg/kg/injection, schedule: Q01DX009 (ip), vehicle: saline with Tween-80) 95 % of control; (dose: 100.0 mg/kg/injection, schedule: Q04DX003 (ip), vehicle: Klucel (hydroxypropylcellulose) (HPC)) 95 % of control; (dose: 200.0 mg/kg/injection, schedule: Q04DX003 (ip), vehicle: Klucel (hydroxypropylcellulose) (HPC)) 90 % of control.
For `CN(C)c1ccc2c(c1)Cc1cc(NC(=O)/C=C/C(=O)O)ccc1-2`, the T/C under setting [1] is 112 % of control, the T/C under setting [2] is 93 % of control and the T/C under setting [3] is 91 % of control.
For `CN=C(NN)Nc1ccccc1`, the T/C by setting is: (dose: 87.5 mg/kg/injection, schedule: Q04DX003 (ip), vehicle: saline) 96 % of control; (dose: 175.0 mg/kg/injection, schedule: Q04DX003 (ip), vehicle: saline) 104 % of control; (dose: 350.0 mg/kg/injection, schedule: Q04DX003 (ip), vehicle: saline) 93 % of control.
With `CC(C)C(/C=N/N=C(N)N)=N\N=C(N)N`, the T/C by setting is: (dose: 15.0 mg/kg/injection, schedule: Q01DX Z (ip), vehicle: methylcellulose (MC)) 94 % of control; (dose: 30.0 mg/kg/injection, schedule: Q01DX Z (ip), vehicle: methylcellulose (MC)) 105 % of control; (dose: 60.0 mg/kg/injection, schedule: Q01DX Z (ip), vehicle: methylcellulose (MC)) 94 % of control; (dose: 120.0 mg/kg/injection, schedule: Q01DX Z (ip), vehicle: methylcellulose (MC)) 96 % of control.
Regarding `Nc1nc(SCc2ccccc2)c2ncn(CCCl)c2n1`, the T/C (dose: 5.0 mg/kg/injection, schedule: Q01DX001 (ip), vehicle: carboxymethylcellulose (CMC)) is 107 % of control; the T/C (dose: 10.0 mg/kg/injection, schedule: Q01DX001 (ip), vehicle: carboxymethylcellulose (CMC)) was 107 % of control; the T/C (dose: 13.0 mg/kg/injection, schedule: Q01DX Z (ip), vehicle: carboxymethylcellulose (CMC)) was 105 % of control; the T/C (dose: 20.0 mg/kg/injection, schedule: Q01DX001 (ip), vehicle: carboxymethylcellulose (CMC)) is 107 % of control; the T/C (dose: 30.0 mg/kg/injection, schedule: Q01DX Z (ip), vehicle: carboxymethylcellulose (CMC)) is 150 % of control; the T/C (dose: 40.0 mg/kg/injection, schedule: Q01DX001 (ip), vehicle: carboxymethylcellulose (CMC)) was 120 % of control. In addition, the T/C was 116 % of control (dose: 67.0 mg/kg/injection, schedule: Q01DX Z (ip), vehicle: carboxymethylcellulose (CMC)); 122 % of control (dose: 80.0 mg/kg/injection, schedule: Q01DX001 (ip), vehicle: carboxymethylcellulose (CMC)); 101 % of control (dose: 100.0 mg/kg/injection, schedule: Q01DX Z (ip), vehicle: carboxymethylcellulose (CMC)); 90 % of control (dose: 150.0 mg/kg/injection, schedule: Q01DX Z (ip), vehicle: carboxymethylcellulose (CMC)); 116 % of control (dose: 320.0 mg/kg/injection, schedule: Q01DX001 (ip), vehicle: carboxymethylcellulose (CMC)).
On to `CC(CCC1CCCCC1)c1ccccc1` (stereo not given) (tested in a mixture with another compound), for which the T/C is 93 % of control (dose: 100.0 mg/kg/injection, schedule: Q04DX003 (ip), vehicle: saline with Tween-80); 96 % of control (dose: 200.0 mg/kg/injection, schedule: Q04DX003 (ip), vehicle: saline with Tween-80); 93 % of control (dose: 400.0 mg/kg/injection, schedule: Q04DX003 (ip), vehicle: saline with Tween-80).
For the molecule `CCCCOP(=O)(OCCCC)SCl`, the T/C is 95 % of control (dose: 100.0 mg/kg/injection, schedule: Q04DX002 (ip), vehicle: saline with Tween-80) and 92 % of control (dose: 200.0 mg/kg/injection, schedule: Q04DX002 (ip), vehicle: saline with Tween-80).
Consider `CC(CS)CS`, for which the T/C runs as follows: under setting [4], 95 % of control; under setting [5], 95 % of control; under setting [6], 95 % of control.
`COC(=O)c1ccccc1NC(=O)Nc1cccc(Cl)c1C`: the T/C runs as follows: (dose: 100.0 mg/kg/injection, schedule: Q01DX009 (ip), vehicle: Klucel (hydroxypropylcellulose) (HPC)) 86 % of control; (dose: 200.0 mg/kg/injection, schedule: Q01DX009 (ip), vehicle: Klucel (hydroxypropylcellulose) (HPC)) 95 % of control.
For `Cc1ccc(C(c2ccc(C)c(C)c2)C(O)C(O)C(O)C(O)CO)cc1C` (stereo not given), the T/C was 92 % of control (dose: 100.0 mg/kg/injection, schedule: Q01DX001 (ip), vehicle: Klucel (hydroxypropylcellulose) (HPC)); 87 % of control under setting [7]; 100 % of control (dose: 200.0 mg/kg/injection, schedule: Q01DX001 (ip), vehicle: Klucel (hydroxypropylcellulose) (HPC)); 91 % of control under setting [8]; 89 % of control under setting [9].
On to `CCOC(=O)C(=Cc1csc2ccccc12)C(=O)OCC`, for which the T/C by setting is: under setting [4], 92 % of control; under setting [5], 94 % of control; under setting [6], 94 % of control.
Turning to `C1=CC2CCC(C1)C21OCCO1` (stereo not given), the T/C is 92 % of control under setting [10]; 108 % of control (dose: 100.0 mg/kg/injection, schedule: Q04DX003 (ip), vehicle: alcohol); 96 % of control under setting [11]; 108 % of control (dose: 200.0 mg/kg/injection, schedule: Q04DX003 (ip), vehicle: alcohol); 94 % of control under setting [12]; 97 % of control (dose: 400.0 mg/kg/injection, schedule: Q04DX003 (ip), vehicle: alcohol).
As to `O=S(=O)(Cc1ccccc1)C(=C(N1CCCCC1)N1CCCCC1)S(=O)(=O)Cc1ccccc1`, the T/C runs as follows: under setting [7], 102 % of control; under setting [10], 94 % of control; under setting [8], 104 % of control; under setting [11], 93 % of control; under setting [9], 98 % of control; under setting [12], 96 % of control.
For `C[C@@H]1C[C@@]2(C)[C@@H](CC[C@@H]3[C@@H]2CC[C@]2(C)[C@@H](OC4CCCCO4)CC[C@@H]32)CC1=O` (stereo not given in full), the T/C under setting [4] was 93 % of control and the T/C under setting [6] is 88 % of control.
As to `CCCCC(/C=N\NC(=O)c1ccc[n+](C)c1)CC` (stereo not given), the T/C is 103 % of control (dose: 50.0 mg/kg/injection, schedule: Q01DX009 (ip), vehicle: saline) and 100 % of control under setting [10].
On to `O=C(/C=C\c1ccc(/C=C\C(=O)c2ccccc2O)cc1)c1ccccc1O`, for which the T/C runs as follows: (dose: 50.0 mg/kg/injection, schedule: Q01DX001 (ip), vehicle: saline) 97 % of control; under setting [7], 97 % of control; under setting [8], 97 % of control; under setting [9], 103 % of control.
As to `COC(=O)C(C)O` (stereo not given), the T/C is 97 % of control under setting [1], 105 % of control under setting [2] and 107 % of control under setting [3].
As to `Nc1nc(=S)c2nc(CNc3ccc(C(=O)NC(CCC(=O)O)C(=O)O)cc3)nnc2[nH]1` (stereo not given), the T/C was 103 % of control (dose: 100.0 mg/kg/injection, schedule: Q01DX001 (ip), vehicle: saline with Tween-80) and 105 % of control (dose: 200.0 mg/kg/injection, schedule: Q01DX001 (ip), vehicle: saline with Tween-80).
`COC(=O)C(OC(C)=O)C1OC(n2cnc3c(=S)nc[nH]c32)C(OC(C)=O)C1OC(C)=O` (stereo not given): the T/C is, setting by setting: under setting [7], 96 % of control; under setting [8], 102 % of control; under setting [9], 97 % of control.
